Source: patent US20150087622A1, “NEW METHOD OF USE OF A PESTICIDE” (SYNGENTA PARTICIPATIONS AG, priority 2012, published 2015)

tested on: Diabrotica balteata; experiment: Transovarial effects on Diabrotica balteata adults fed on sprayed bean plants (% egg mortality); format: in vivo; settings: Diabrotica balteata; 10 ppm; egg laying period 1; read-out: % egg mortality: on egg laying period 1
Method: The following IGRs in Table 1 were tested for their transovarial effects on Diabrotica balteata by observing percentage egg mortality.
Bean plants (Phaseolus vulgaris, var. Amata) were treated in an automatic spray chamber (ARO-1) with around 500 l/ha. After drying of the spray deposits, plants were placed in gauze cages and infested with newly hatched (0-24 h old) Diabrotica balteata adults. After seven days, treated plants were removed and replaced by non-treated plants. From day seven to day 38 eggs were collected in three-day intervals, counted and checked on number of hatched larvae (% egg mortality). Percentage egg mortality was calculated as the number of unhatched eggs per total number of eggs laid.

Structure (SMILES)	mortality at 10 ppm
O=C(NC(=O)c1c(F)cccc1F)Nc1cc(Cl)c(OC(F)(F)C(F)F)c(Cl)c1 [Consult, Hexaflumuron]	75%
O=C(NC(=O)c1c(F)cccc1F)Nc1ccc(Oc2ccc(C(F)(F)F)cc2Cl)cc1F [Cascade, Flufenoxuron]	69%
COc1cccc(C(=O)NN(C(=O)c2cc(C)cc(C)c2)C(C)(C)C)c1C [Intrepid, Methoxyfenozide]	7%
O=C(NC(=O)c1c(F)cccc1F)Nc1ccc(Cl)cc1 [Dimilin, Diflubenzuron]	0%

same assay, conditions: Diabrotica balteata; 10 ppm; egg laying period 2; read-out: % egg mortality: on egg laying period 2

Structure (SMILES)	mortality at 10 ppm
O=C(NC(=O)c1c(F)cccc1F)Nc1cc(Cl)c(OC(F)(F)C(F)F)c(Cl)c1 [Consult, Hexaflumuron]	36%
O=C(NC(=O)c1c(F)cccc1F)Nc1ccc(Oc2ccc(C(F)(F)F)cc2Cl)cc1F [Cascade, Flufenoxuron]	22%
COc1cccc(C(=O)NN(C(=O)c2cc(C)cc(C)c2)C(C)(C)C)c1C [Intrepid, Methoxyfenozide]	8%
O=C(NC(=O)c1c(F)cccc1F)Nc1ccc(Cl)cc1 [Dimilin, Diflubenzuron]	11%

same assay, conditions: Diabrotica balteata; 10 ppm; egg laying period 3; read-out: % egg mortality: on egg laying period 3

Structure (SMILES)	mortality at 10 ppm
O=C(NC(=O)c1c(F)cccc1F)Nc1cc(Cl)c(OC(F)(F)C(F)F)c(Cl)c1 [Consult, Hexaflumuron]	7%
O=C(NC(=O)c1c(F)cccc1F)Nc1ccc(Oc2ccc(C(F)(F)F)cc2Cl)cc1F [Cascade, Flufenoxuron]	91%
COc1cccc(C(=O)NN(C(=O)c2cc(C)cc(C)c2)C(C)(C)C)c1C [Intrepid, Methoxyfenozide]	9%
O=C(NC(=O)c1c(F)cccc1F)Nc1ccc(Cl)cc1 [Dimilin, Diflubenzuron]	6%

same assay, conditions: Diabrotica balteata; 10 ppm; egg laying period 4; read-out: % egg mortality: on egg laying period 4

Structure (SMILES)	mortality at 10 ppm
O=C(NC(=O)c1c(F)cccc1F)Nc1cc(Cl)c(OC(F)(F)C(F)F)c(Cl)c1 [Consult, Hexaflumuron]	8%
O=C(NC(=O)c1c(F)cccc1F)Nc1ccc(Oc2ccc(C(F)(F)F)cc2Cl)cc1F [Cascade, Flufenoxuron]	10%
COc1cccc(C(=O)NN(C(=O)c2cc(C)cc(C)c2)C(C)(C)C)c1C [Intrepid, Methoxyfenozide]	7%
O=C(NC(=O)c1c(F)cccc1F)Nc1ccc(Cl)cc1 [Dimilin, Diflubenzuron]	10%

same assay, conditions: Diabrotica balteata; 10 ppm; egg laying period 5; read-out: % egg mortality: on egg laying period 5

Structure (SMILES)	mortality at 10 ppm
O=C(NC(=O)c1c(F)cccc1F)Nc1cc(Cl)c(OC(F)(F)C(F)F)c(Cl)c1 [Consult, Hexaflumuron]	9%
O=C(NC(=O)c1c(F)cccc1F)Nc1ccc(Oc2ccc(C(F)(F)F)cc2Cl)cc1F [Cascade, Flufenoxuron]	9%
O=C(NC(=O)c1c(F)cccc1F)Nc1ccc(Cl)cc1 [Dimilin, Diflubenzuron]	9%

same assay, conditions: Diabrotica balteata; 10 ppm; egg laying period 6; read-out: % egg mortality: on egg laying period 6

Structure (SMILES)	mortality at 10 ppm
O=C(NC(=O)c1c(F)cccc1F)Nc1cc(Cl)c(OC(F)(F)C(F)F)c(Cl)c1 [Consult, Hexaflumuron]	10%
O=C(NC(=O)c1c(F)cccc1F)Nc1ccc(Oc2ccc(C(F)(F)F)cc2Cl)cc1F [Cascade, Flufenoxuron]	8%
O=C(NC(=O)c1c(F)cccc1F)Nc1ccc(Cl)cc1 [Dimilin, Diflubenzuron]	12%

same assay, conditions: Diabrotica balteata; 10 ppm; egg laying period 7; read-out: % egg mortality: on egg laying period 7

Structure (SMILES)	mortality at 10 ppm
O=C(NC(=O)c1c(F)cccc1F)Nc1ccc(Oc2ccc(C(F)(F)F)cc2Cl)cc1F [Cascade, Flufenoxuron]	8%

same assay, conditions: Diabrotica balteata; 10 ppm; egg laying period 8; read-out: % egg mortality: on egg laying period 8

Structure (SMILES)	mortality at 10 ppm
O=C(NC(=O)c1c(F)cccc1F)Nc1ccc(Oc2ccc(C(F)(F)F)cc2Cl)cc1F [Cascade, Flufenoxuron]	8%

same assay, conditions: Diabrotica balteata; 25 ppm; egg laying period 1; read-out: % egg mortality: on egg laying period 1

Structure (SMILES)	mortality at 25 ppm
O=C(NC(=O)c1c(F)cccc1F)Nc1cc(Cl)c(OC(F)(F)C(F)F)c(Cl)c1 [Consult, Hexaflumuron]	97%
O=C(NC(=O)c1c(F)cccc1F)Nc1ccc(Oc2ccc(C(F)(F)F)cc2Cl)cc1F [Cascade, Flufenoxuron]	100%
COc1cccc(C(=O)NN(C(=O)c2cc(C)cc(C)c2)C(C)(C)C)c1C [Intrepid, Methoxyfenozide]	13%
O=C(NC(=O)c1c(F)cccc1F)Nc1ccc(Cl)cc1 [Dimilin, Diflubenzuron]	0%

same assay, conditions: Diabrotica balteata; 25 ppm; egg laying period 2; read-out: % egg mortality: on egg laying period 2

Structure (SMILES)	mortality at 25 ppm
O=C(NC(=O)c1c(F)cccc1F)Nc1cc(Cl)c(OC(F)(F)C(F)F)c(Cl)c1 [Consult, Hexaflumuron]	93%
O=C(NC(=O)c1c(F)cccc1F)Nc1ccc(Oc2ccc(C(F)(F)F)cc2Cl)cc1F [Cascade, Flufenoxuron]	100%
COc1cccc(C(=O)NN(C(=O)c2cc(C)cc(C)c2)C(C)(C)C)c1C [Intrepid, Methoxyfenozide]	13%
O=C(NC(=O)c1c(F)cccc1F)Nc1ccc(Cl)cc1 [Dimilin, Diflubenzuron]	7%

same assay, conditions: Diabrotica balteata; 25 ppm; egg laying period 3; read-out: % egg mortality: on egg laying period 3

Structure (SMILES)	mortality at 25 ppm
O=C(NC(=O)c1c(F)cccc1F)Nc1cc(Cl)c(OC(F)(F)C(F)F)c(Cl)c1 [Consult, Hexaflumuron]	15%
O=C(NC(=O)c1c(F)cccc1F)Nc1ccc(Oc2ccc(C(F)(F)F)cc2Cl)cc1F [Cascade, Flufenoxuron]	98%
COc1cccc(C(=O)NN(C(=O)c2cc(C)cc(C)c2)C(C)(C)C)c1C [Intrepid, Methoxyfenozide]	7%
O=C(NC(=O)c1c(F)cccc1F)Nc1ccc(Cl)cc1 [Dimilin, Diflubenzuron]	5%

same assay, conditions: Diabrotica balteata; 25 ppm; egg laying period 4; read-out: % egg mortality: on egg laying period 4

Structure (SMILES)	mortality at 25 ppm
O=C(NC(=O)c1c(F)cccc1F)Nc1cc(Cl)c(OC(F)(F)C(F)F)c(Cl)c1 [Consult, Hexaflumuron]	11%
O=C(NC(=O)c1c(F)cccc1F)Nc1ccc(Oc2ccc(C(F)(F)F)cc2Cl)cc1F [Cascade, Flufenoxuron]	64%
COc1cccc(C(=O)NN(C(=O)c2cc(C)cc(C)c2)C(C)(C)C)c1C [Intrepid, Methoxyfenozide]	11%
O=C(NC(=O)c1c(F)cccc1F)Nc1ccc(Cl)cc1 [Dimilin, Diflubenzuron]	5%

same assay, conditions: Diabrotica balteata; 25 ppm; egg laying period 6; read-out: % egg mortality: on egg laying period 6

Structure (SMILES)	mortality at 25 ppm
O=C(NC(=O)c1c(F)cccc1F)Nc1cc(Cl)c(OC(F)(F)C(F)F)c(Cl)c1 [Consult, Hexaflumuron]	11%
O=C(NC(=O)c1c(F)cccc1F)Nc1ccc(Oc2ccc(C(F)(F)F)cc2Cl)cc1F [Cascade, Flufenoxuron]	14%
O=C(NC(=O)c1c(F)cccc1F)Nc1ccc(Cl)cc1 [Dimilin, Diflubenzuron]	10%

same assay, conditions: Diabrotica balteata; 25 ppm; egg laying period 7; read-out: % egg mortality: on egg laying period 7

Structure (SMILES)	mortality at 25 ppm
O=C(NC(=O)c1c(F)cccc1F)Nc1ccc(Oc2ccc(C(F)(F)F)cc2Cl)cc1F [Cascade, Flufenoxuron]	9%

same assay, conditions: Diabrotica balteata; 50 ppm; egg laying period 2; read-out: % egg mortality: on egg laying period 2

Structure (SMILES)	mortality at 50 ppm
O=C(NC(=O)c1c(F)cccc1F)Nc1cc(Cl)c(OC(F)(F)C(F)F)c(Cl)c1 [Consult, Hexaflumuron]	92%
O=C(NC(=O)c1c(F)cccc1F)Nc1ccc(Oc2ccc(C(F)(F)F)cc2Cl)cc1F [Cascade, Flufenoxuron]	100%
COc1cccc(C(=O)NN(C(=O)c2cc(C)cc(C)c2)C(C)(C)C)c1C [Intrepid, Methoxyfenozide]	14%
O=C(NC(=O)c1c(F)cccc1F)Nc1ccc(Cl)cc1 [Dimilin, Diflubenzuron]	16%

same assay, conditions: Diabrotica balteata; 50 ppm; egg laying period 3; read-out: % egg mortality: on egg laying period 3

Structure (SMILES)	mortality at 50 ppm
O=C(NC(=O)c1c(F)cccc1F)Nc1cc(Cl)c(OC(F)(F)C(F)F)c(Cl)c1 [Consult, Hexaflumuron]	15%
O=C(NC(=O)c1c(F)cccc1F)Nc1ccc(Oc2ccc(C(F)(F)F)cc2Cl)cc1F [Cascade, Flufenoxuron]	100%
COc1cccc(C(=O)NN(C(=O)c2cc(C)cc(C)c2)C(C)(C)C)c1C [Intrepid, Methoxyfenozide]	10%
O=C(NC(=O)c1c(F)cccc1F)Nc1ccc(Cl)cc1 [Dimilin, Diflubenzuron]	3%

same assay, conditions: Diabrotica balteata; 50 ppm; egg laying period 4; read-out: % egg mortality: on egg laying period 4

Structure (SMILES)	mortality at 50 ppm
O=C(NC(=O)c1c(F)cccc1F)Nc1cc(Cl)c(OC(F)(F)C(F)F)c(Cl)c1 [Consult, Hexaflumuron]	22%
O=C(NC(=O)c1c(F)cccc1F)Nc1ccc(Oc2ccc(C(F)(F)F)cc2Cl)cc1F [Cascade, Flufenoxuron]	64%
COc1cccc(C(=O)NN(C(=O)c2cc(C)cc(C)c2)C(C)(C)C)c1C [Intrepid, Methoxyfenozide]	9%
O=C(NC(=O)c1c(F)cccc1F)Nc1ccc(Cl)cc1 [Dimilin, Diflubenzuron]	5%

same assay, conditions: Diabrotica balteata; 50 ppm; egg laying period 5; read-out: % egg mortality: on egg laying period 5

Structure (SMILES)	mortality at 50 ppm
O=C(NC(=O)c1c(F)cccc1F)Nc1cc(Cl)c(OC(F)(F)C(F)F)c(Cl)c1 [Consult, Hexaflumuron]	48%
O=C(NC(=O)c1c(F)cccc1F)Nc1ccc(Oc2ccc(C(F)(F)F)cc2Cl)cc1F [Cascade, Flufenoxuron]	13%
O=C(NC(=O)c1c(F)cccc1F)Nc1ccc(Cl)cc1 [Dimilin, Diflubenzuron]	7%

same assay, conditions: Diabrotica balteata; 50 ppm; egg laying period 6; read-out: % egg mortality: on egg laying period 6

Structure (SMILES)	mortality at 50 ppm
O=C(NC(=O)c1c(F)cccc1F)Nc1cc(Cl)c(OC(F)(F)C(F)F)c(Cl)c1 [Consult, Hexaflumuron]	15%
O=C(NC(=O)c1c(F)cccc1F)Nc1ccc(Oc2ccc(C(F)(F)F)cc2Cl)cc1F [Cascade, Flufenoxuron]	6%
O=C(NC(=O)c1c(F)cccc1F)Nc1ccc(Cl)cc1 [Dimilin, Diflubenzuron]	7%

same assay, conditions: Diabrotica balteata; 50 ppm; egg laying period 7; read-out: % egg mortality: on egg laying period 7

Structure (SMILES)	mortality at 50 ppm
O=C(NC(=O)c1c(F)cccc1F)Nc1ccc(Oc2ccc(C(F)(F)F)cc2Cl)cc1F [Cascade, Flufenoxuron]	11%
O=C(NC(=O)c1c(F)cccc1F)Nc1ccc(Cl)cc1 [Dimilin, Diflubenzuron]	8%

same assay, conditions: Diabrotica balteata; 50 ppm; egg laying period 8; read-out: % egg mortality: on egg laying period 8

Structure (SMILES)	mortality at 50 ppm
O=C(NC(=O)c1c(F)cccc1F)Nc1ccc(Oc2ccc(C(F)(F)F)cc2Cl)cc1F [Cascade, Flufenoxuron]	9%

same assay, conditions: Rate 5 g AI/ha

Structure (SMILES)	Spray interval (days)	Spray interval
O=C(NC(=O)c1c(F)cccc1F)Nc1cc(Cl)c(OC(F)(F)C(F)F)c(Cl)c1 [Consult, Hexaflumuron]	Insufficient	–
O=C(NC(=O)c1c(F)cccc1F)Nc1ccc(Oc2ccc(C(F)(F)F)cc2Cl)cc1F [Cascade, Flufenoxuron]	–	7 days

same assay, conditions: Rate 12.5 g AI/ha

Structure (SMILES)	Spray interval
O=C(NC(=O)c1c(F)cccc1F)Nc1cc(Cl)c(OC(F)(F)C(F)F)c(Cl)c1 [Consult, Hexaflumuron]	5 days
O=C(NC(=O)c1c(F)cccc1F)Nc1ccc(Oc2ccc(C(F)(F)F)cc2Cl)cc1F [Cascade, Flufenoxuron]	7 days

same assay, conditions: Rate 25 g AI/ha

Structure (SMILES)	Spray interval
O=C(NC(=O)c1c(F)cccc1F)Nc1cc(Cl)c(OC(F)(F)C(F)F)c(Cl)c1 [Consult, Hexaflumuron]	5 days
O=C(NC(=O)c1c(F)cccc1F)Nc1ccc(Oc2ccc(C(F)(F)F)cc2Cl)cc1F [Cascade, Flufenoxuron]	7 days

same assay, conditions: at the used dose rates

Structure (SMILES)	Transovarial effects on treated adults of Diabrotica balteata
O=C(NC(=O)c1c(F)cccc1F)Nc1cc(Cl)c(OC(F)(F)C(F)F)c(Cl)c1 [Consult, Hexaflumuron]	Transovarial effects can be observed
O=C(NC(=O)c1c(F)cccc1F)Nc1ccc(Oc2ccc(C(F)(F)F)cc2Cl)cc1F [Cascade, Flufenoxuron]	Transovarial effects can be observed
COc1cccc(C(=O)NN(C(=O)c2cc(C)cc(C)c2)C(C)(C)C)c1C [Intrepid, Methoxyfenozide]	transovarially inactive
O=C(NC(=O)c1c(F)cccc1F)Nc1ccc(Cl)cc1 [Dimilin, Diflubenzuron]	transovarially inactive
